{
  "source": "patent US20210261512A1",
  "about": "“NOVEL COMPOUNDS” (INFLAZOME LIMITED, priority 2018, published 2021)",
  "target": "NLRP3 (Homo sapiens, UniProt Q96P20)",
  "sequence (Q96P20 whole entry)": "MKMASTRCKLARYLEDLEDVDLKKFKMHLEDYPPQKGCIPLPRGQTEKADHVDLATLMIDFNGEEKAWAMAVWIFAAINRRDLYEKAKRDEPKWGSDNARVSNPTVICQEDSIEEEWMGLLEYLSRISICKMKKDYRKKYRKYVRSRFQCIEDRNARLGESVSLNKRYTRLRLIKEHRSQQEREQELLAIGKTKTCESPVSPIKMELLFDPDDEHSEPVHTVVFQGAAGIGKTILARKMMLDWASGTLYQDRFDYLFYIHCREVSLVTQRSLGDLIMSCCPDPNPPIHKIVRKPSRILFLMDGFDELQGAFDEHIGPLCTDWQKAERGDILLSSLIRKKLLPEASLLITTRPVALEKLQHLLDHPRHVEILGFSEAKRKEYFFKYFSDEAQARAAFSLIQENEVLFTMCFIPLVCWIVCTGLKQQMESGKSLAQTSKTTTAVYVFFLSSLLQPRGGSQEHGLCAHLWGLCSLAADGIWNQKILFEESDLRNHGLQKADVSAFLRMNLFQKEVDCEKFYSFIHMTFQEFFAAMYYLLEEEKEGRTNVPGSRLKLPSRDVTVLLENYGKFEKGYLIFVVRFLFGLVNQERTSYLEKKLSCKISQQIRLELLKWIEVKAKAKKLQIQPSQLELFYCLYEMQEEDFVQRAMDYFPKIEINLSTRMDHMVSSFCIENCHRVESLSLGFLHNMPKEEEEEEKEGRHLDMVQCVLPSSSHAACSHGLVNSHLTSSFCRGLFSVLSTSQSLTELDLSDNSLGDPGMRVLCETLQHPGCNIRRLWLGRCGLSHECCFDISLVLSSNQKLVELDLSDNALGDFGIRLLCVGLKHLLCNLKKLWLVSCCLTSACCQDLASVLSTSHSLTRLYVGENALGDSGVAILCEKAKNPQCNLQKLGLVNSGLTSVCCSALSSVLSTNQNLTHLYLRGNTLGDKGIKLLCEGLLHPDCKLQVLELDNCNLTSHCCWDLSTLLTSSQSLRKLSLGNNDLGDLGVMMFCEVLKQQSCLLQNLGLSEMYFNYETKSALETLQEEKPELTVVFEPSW",
  "experiment": "THP-1 cells pyroptosis assay",
  "assay_type": "cell-based",
  "set-up": "Seed THP-1 cells (25,000 cells/well) containing 1.0 μg/ml LPS; host or cells: THP-1",
  "settings": "LPS 1.0 μg/ml, nigericin 5 μM, resazurin readout, 10 μM top dose (Example 2: top dose of 30 μM)",
  "outline": "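Pyroptosis induced by 5 μM nigericin (1 h) in LPS-primed (1 μg/ml) THP-1 cells, 25,000/well in serum-free RPMI, after 3 h compound pre-treatment (8 points, 10 μM top unless stated). Surviving cells measured with 100 μM resazurin, Ex 560/Em 590; IC50 via variable-slope 4-parameter regression.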",
  "data": [
    {"smiles": "N#Cc1ccccc1S(=O)(=O)c1nnc(Nc2c3c(cc4c2CCC4)CCC3)[nH]1", "note": "[Example 185, 2-((5-((1,2,3,5,6,7-hexahydro-s-indacen-4-yl)amino)-4H-1,2,4-triazol-3-yl)sulfonyl)benzonitrile]", "values": [
      {"measurement": "IC50", "value": "≤ 0.5", "unit": "µM"}
    ]},
    {"smiles": "O=S1(=O)CCN(S(=O)(=O)c2nnc(Nc3c4c(cc5c3CCC5)CCC4)[nH]2)CC1", "note": "[Example 298, 4-((5-((1,2,3,5,6,7-hexahydro-s-indacen-4-yl)amino)-4H-1,2,4-triazol-3-yl)sulfonyl)thiomorpholine 1,1-dioxide]", "values": [
      {"measurement": "IC50", "value": "≤ 10", "unit": "µM"}
    ]},
    {"smiles": "Cc1ccccc1S(=O)(=O)c1nnc(Nc2c3c(cc4c2CCC4)CCC3)[nH]1", "note": "[Example 187, N-(1,2,3,5,6,7-hexahydro-s-indacen-4-yl)-5-(o-tolylsulfonyl)-4H-1,2,4-triazol-3-amine]", "values": [
      {"measurement": "IC50", "value": "≤ 1", "unit": "µM"}
    ]},
    {"smiles": "COCCNS(=O)(=O)c1nnc(Nc2c3c(cc4c2CCC4)CCC3)[nH]1", "note": "[Example 83, 5-((1,2,3,5,6,7-hexahydro-s-indacen-4-yl)amino)-N-(2-methoxyethyl)-4H-1,2,4-triazole-3-sulfonamide]", "values": [
      {"measurement": "IC50", "value": "≤ 10", "unit": "µM"}
    ]},
    {"smiles": "O=S(=O)(c1nnc(Nc2c3c(cc4c2CCC4)CCC3)[nH]1)N1CCCC2(CCOC2)C1", "note": "(stereo not drawn) [Example 313, 5-(2-oxa-7-azaspiro[4.5]decan-7-ylsulfonyl)-N-(1,2,3,5,6,7-hexahydro-s-indacen-4-yl)-4H-1,2,4-triazol-3-amine]", "values": [
      {"measurement": "IC50", "value": "≤ 5", "unit": "µM"}
    ]},
    {"smiles": "COc1cc(-c2cc(-c3ncco3)c3c(c2Nc2nnc(S(=O)(=O)N4CCC(N(C)C)CC4)[nH]2)CCC3)ccn1", "note": "[Example 229, 1-((5-((5-(2-methoxypyridin-4-yl)-7-(oxazol-2-yl)-2,3-dihydro-1H-inden-4-yl)amino)-4H-1,2,4-triazol-3-yl)sulfonyl)-N,N-dimethylpiperidin-4-amine]", "values": [
      {"measurement": "IC50", "value": "≤ 10", "unit": "µM"}
    ]},
    {"smiles": "O=S(=O)(NCCc1ccccc1)c1nnc(Nc2c3c(cc4c2CCC4)CCC3)[nH]1", "note": "[Example 134, 5-((1,2,3,5,6,7-hexahydro-s-indacen-4-yl)amino)-N-phenethyl-4H-1,2,4-triazole-3-sulfonamide]", "values": [
      {"measurement": "IC50", "value": "≤ 5", "unit": "µM"}
    ]},
    {"smiles": "CN1Cc2ccc(S(=O)(=O)c3n[nH]c(Nc4c5c(cc6c4CCC6)CCC5)n3)cc2C1=O", "note": "[Example 180, 6-((5-((1,2,3,5,6,7-hexahydro-s-indacen-4-yl)amino)-1H-1,2,4-triazol-3-yl)sulfonyl)-2-methylisoindolin-1-one]", "values": [
      {"measurement": "IC50", "value": "≤ 5", "unit": "µM"}
    ]},
    {"smiles": "O=S(=O)(c1nnc(Nc2c3c(cc4c2CCC4)CCC3)[nH]1)N1CC2(CCNC2)C1", "note": "[Example 265, 5-((2,6-diazaspiro[3.4]octan-2-yl)sulfonyl)-N-(1,2,3,5,6,7-hexahydro-s-indacen-4-yl)-4H-1,2,4-triazol-3-amine]", "values": [
      {"measurement": "IC50", "value": "≤ 5", "unit": "µM"}
    ]},
    {"smiles": "CC(C)c1cc(F)cc(C(C)C)c1Cc1nnc(S(=O)(=O)N2CCC(CN(C)C)C2)[nH]1", "note": "(stereo not drawn) [Example 161, 1-(1-((5-(4-fluoro-2,6-diisopropylbenzyl)-4H-1,2,4-triazol-3-yl)-sulfonyl)pyrrolidin-3-yl)-N,N-dimethylmethanamine]", "values": [
      {"measurement": "IC50", "value": "≤ 5", "unit": "µM"}
    ]},
    {"smiles": "CNC(=O)C1CCN(S(=O)(=O)c2nnc(Nc3c4c(cc5c3CCC5)CCC4)[nH]2)C1", "note": "(stereo not drawn) [Example 140, 1-((5-((1,2,3,5,6,7-hexahydro-s-indacen-4-yl)amino)-4H-1,2,4-triazol-3-yl)sulfonyl)-N-methylpyrrolidine-3-carboxamide]", "values": [
      {"measurement": "IC50", "value": "≤ 5", "unit": "µM"}
    ]},
    {"smiles": "CC(C)(O)c1ccc(S(=O)(=O)c2nnc(Nc3c4c(cc5c3CCC5)CCC4)[nH]2)cc1", "note": "[Example 186, 2-(4-((5-((1,2,3,5,6,7-hexahydro-s-indacen-4-yl)amino)-4H-1,2,4-triazol-3-yl)sulfonyl)phenyl) propan-2-01]", "values": [
      {"measurement": "IC50", "value": "≤ 0.5", "unit": "µM"}
    ]},
    {"smiles": "O=S(=O)(c1cccnn1)c1n[nH]c(Nc2c3c(cc4c2CCC4)CCC3)n1", "note": "[Example 167, N-(1,2,3,5,6,7-hexahydro-s-indacen-4-yl)-3-(pyridazin-3-ylsulfonyl)-1H-1,2,4-triazol-5-amine]", "values": [
      {"measurement": "IC50", "value": "≤ 5", "unit": "µM"}
    ]},
    {"smiles": "Cc1cc2c(c(Nc3nnc(S(C)(=O)=O)[nH]3)c1-c1ccnc(OC3CCNCC3)c1)CCC2", "note": "[Example 368, N-(6-methyl-5-(2-(piperidin-4-yloxy)pyridin-4-yl)-2,3-dihydro-1H-inden-4-yl)-5-(methylsulfonyl)-4H-1,2,4-triazol-3-amine]", "values": [
      {"measurement": "IC50", "value": "≤ 5", "unit": "µM"}
    ]},
    {"smiles": "O=S(=O)(c1nnc(Nc2c3c(cc4c2CCC4)CCC3)[nH]1)N1CCC2(CCCN2CC(F)(F)F)CC1", "note": "[Example 267, N-(1,2,3,5,6,7-hexahydro-s-indacen-4-yl)-5-((1-(2,2,2-trifluoroethyl)-1,8-diazaspiro[4.5]decan-8-yl)sulfonyl)-4H-1,2,4-triazol-3-amine]", "values": [
      {"measurement": "IC50", "value": "≤ 10", "unit": "µM"}
    ]},
    {"smiles": "CN(C)S(=O)(=O)c1nnc(Nc2c3c(cc4c2CCC4)CCC3)[nH]1", "note": "[Example 262, 5-((1,2,3,5,6,7-hexahydro-s-indacen-4-yl)amino)-N,N-dimethyl-4H-1,2,4-triazole-3-sulfonamide]", "values": [
      {"measurement": "IC50", "value": "≤ 5", "unit": "µM"}
    ]},
    {"smiles": "Cc1cccc(S(=O)(=O)c2nnc(Nc3c4c(cc5c3CCC5)CCC4)[nH]2)c1", "note": "[Example 174, N-(1,2,3,5,6,7-hexahydro-s-indacen-4-yl)-5-(m-tolylsulfonyl)-4H-1,2,4-triazol-3-amine]", "values": [
      {"measurement": "IC50", "value": "≤ 5", "unit": "µM"}
    ]},
    {"smiles": "CCNCCCS(=O)(=O)c1nnc(Nc2c3c(cc4c2CCC4)CCC3)[nH]1", "note": "[Example 55, 5-((3-(ethylamino)propyl)sulfonyl)-N-(1,2,3,5,6,7-hexahydro-s-indacen-4-yl)-4H-1,2,4-triazol-3-amine]", "values": [
      {"measurement": "IC50", "value": "≤ 5", "unit": "µM"}
    ]},
    {"smiles": "Cn1cc(NS(=O)(=O)c2nnc(Nc3c4c(cc5c3CCC5)CCC4)[nH]2)cn1", "note": "[Example 99, 5-((1,2,3,5,6,7-hexahydro-s-indacen-4-yl)amino)-N-(1-methyl-1H-pyrazol-4-yl)-4H-1,2,4-triazole-3-sulfonamide]", "values": [
      {"measurement": "IC50", "value": "≤ 10", "unit": "µM"}
    ]},
    {"smiles": "CC(C)(O)Cn1cc(S(=O)(=O)c2nnc(Nc3c4c(cc5c3CCC5)CCC4)[nH]2)cn1", "note": "[Example 336, 1-(4-((5-((1,2,3,5,6,7-hexahydro-s-indacen-4-yl)amino)-4H-1,2,4-triazol-3-yl)sulfonyl)-1H-pyrazol-1-yl)-2-methylpropan-2-ol]", "values": [
      {"measurement": "IC50", "value": "≤ 5", "unit": "µM"}
    ]},
    {"smiles": "COc1cc(-c2ccc3c(c2Cc2nnc(S(=O)(=O)c4ccn(C(C)C)n4)[nH]2)CCC3)ccn1", "note": "[Example 32, 4-(4-((5-((1-isopropyl-H-pyrazol-3-yl)sulfonyl)-4H-1,2,4-triazol-3-yl)methyl)-2,3-dihydro-1H-inden-5-yl)-2-methoxypyridine]", "values": [
      {"measurement": "IC50", "value": "≤ 5", "unit": "µM"}
    ]},
    {"smiles": "O=S(=O)(c1nnc(Nc2c3c(cc4c2CCC4)CCC3)[nH]1)C1CCCC(N2CCCC2)C1", "note": "(stereo not drawn) [Example 194, N-(1,2,3,5,6,7-hexahydro-s-indacen-4-yl)-3-((3-(pyrrolidin-1-yl)cyclohexyl)sulfonyl)-1H-1,2,4-triazol-5-amine]", "values": [
      {"measurement": "IC50", "value": "≤ 10", "unit": "µM"}
    ]},
    {"smiles": "Cc1cc2c(c(Nc3nnc(S(=O)(=O)N4CCC(N(C)C)CC4)[nH]3)c1-c1ccnc(OC3CCN(C)CC3)c1)CCC2", "note": "[Example 316, N,N-dimethyl-1-((5-((6-methyl-5-(2-((1-methylpiperidin-4-yl)oxy)pyridin-4-yl)-2,3-dihydro-1H-inden-4-yl)amino)-4H-1,2,4-triazol-3-yl)sulfonyl)piperidin-4-amine]", "values": [
      {"measurement": "IC50", "value": "≤ 5", "unit": "µM"}
    ]},
    {"smiles": "CN(C)C1CCN(S(=O)(=O)c2nnc(Nc3c4c(c(C#N)c5c3CCC5)CCC4)[nH]2)CC1", "note": "[Example 223, 8-((5-((4-(dimethylamino)piperidin-1-yl)sulfonyl)-4H-1,2,4-triazol-3-yl)amino)-1,2,3,5,6,7-hexahydro-s-indacene-4-carbonitrile]", "values": [
      {"measurement": "IC50", "value": "≤ 5", "unit": "µM"}
    ]}
  ]
}
